Source: US6737383B1, “Herbicidal oxadiazolidines” (priority 1999, dated 2004)

Columns and labels:
wheat = assay: Test B pre/postemergence wheat; format: in vivo, Triticum aestivum
Summary of the method: (§1)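 Herbicidal effect was estimated by eye on a ten-point control scale after plants spent twelve to sixteen days in a greenhouse following soil or foliar treatment. Foliar sprays targeted plants at one to four leaves; all doses were formulated in a non-phytotoxic solvent with surfactant.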

bedstraw = assay: Test B pre/postemergence bedstraw; format: in vivo, Galium aparine
Summary of the method: as §1

wild oat = assay: Test B pre/postemergence wild oat; format: in vivo, Avena fatua
Summary of the method: as §1

morningglory = assay: Test B pre/postemergence morningglory; format: in vivo, Ipomoea hederacea
Summary of the method: as §1

blackgrass = assay: Test B pre/postemergence blackgrass; format: in vivo, Alopecurus myosuroides
Summary of the method: as §1

pigweed = assay: Test B pre/postemergence pigweed; format: in vivo, Amaranthus retroflexus
Summary of the method: as §1

rice = assay: Test B flood test rice; format: in vivo, Oryza sativa
Summary of the method: (§2)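 Each value is a visual injury score relative to controls, with 10 meaning complete control and 0 no effect. Evaluation took place twelve to sixteen days after the 2-leaf-stage plants were treated and kept in the greenhouse.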

duck salad = assay: Test B flood test duck salad; format: in vivo, Heteranthera limosa
Summary of the method: as §2

giant foxtail = assay: Test B pre/postemergence giant foxtail; format: in vivo, Setaria faberii
Summary of the method: as §1

smallflower flatsedge = assay: Test B flood test smallflower flatsedge; format: in vivo, Cyperus difformis
Summary of the method: as §2

purple nutsedge = assay: Test B pre/postemergence purple nutsedge; format: in vivo, Cyperus rotundus
Summary of the method: as §1

rape = assay: Test B pre/postemergence rape; format: in vivo, Brassica napus
Summary of the method: as §1

sugar beet = assay: Test B pre/postemergence sugar beet; format: in vivo, Beta vulgaris
Summary of the method: as §1

bamyardgrass = assay: Test B flood test barnyardgrass; format: in vivo, Echinochloa crus-galli
Summary of the method: as §2

velvetleaf = assay: Test B pre/postemergence velvetleaf; format: in vivo, Abutilon theophrasti
Summary of the method: as §1

soybean = assay: Test B pre/postemergence soybean; format: in vivo, Glycine max
Summary of the method: as §1

[1] = Postemergence, Rate 62 g/ha, scale 0 to 10, 0 is no effect, 10 is complete control
[2] = Postemergence, Rate 125 g/ha, scale of 0 to 10 where 0 is no effect and 10 is complete control
[3] = Preemergence, Rate 125 g/ha, scale of 0 to 10 where 0 is no effect and 10 is complete control
[4] = Preemergence, Rate 250 g/ha, scale 0 (no effect) to 10 (complete control)
[5] = Rate 62 g/ha, Preemergence, scale 0 to 10
[6] = Rate 250 g/ha, Postemergence, scale 0 to 10, 0 is no effect, 10 is complete control
[7] = Rate 500 g/ha, Postemergence, scale 0 to 10, 0 is no effect, 10 is complete control
[8] = Rate 500 g/ha, Preemergence, scale 0 to 10 (0 no effect, 10 complete control)
[9] = Pre-emergence, Rate 62 g/ha, scale 0 to 10, 0 is no effect, 10 is complete control
[10] = Rate 125 g/ha, Pre-emergence section (flood test species), scale 0 to 10, 0 no effect, 10 complete control
[11] = Rate 250 g/ha, Pre-emergence (flood test species), scale 0 to 10, 0 is no effect, 10 is complete control
[12] = Rate 500 g/ha, Pre-emergence section of Table B, 0 to 10 scale (0 no effect, 10 complete control)

SMILES: CC(C)N(C(=O)n1oc(=O)n(CC2=NOCCO2)c1=O)c1ccc(Cl)cc1 [Compound 740]
- Plant response rating, Wheat (wheat; [1]): 0
- Wheat plant response rating (wheat; [2]): 0
- Plant response rating, Wheat (wheat; [3]): 0
- Wheat plant response rating (wheat; [4]): 0
- Wheat plant response rating (wheat; [5]): 0
- Wheat plant response rating (wheat; [6]): 0
- Wheat plant response rating (wheat; [7]): 4
- Wheat plant response rating (wheat; [8]): 3
- Plant response rating, Bedstraw (bedstraw; [1]): 0
- Bedstraw plant response rating (bedstraw; [2]): 0
- Plant response rating, Bedstraw (bedstraw; [3]): 0
- Bedstraw plant response rating (bedstraw; [4]): 0
- Bedstraw plant response rating (bedstraw; [5]): 0
- Bedstraw plant response rating (bedstraw; [7]): 0
- Bedstraw plant response rating (bedstraw; [8]): 0
- Plant response rating, Wild oats (wild oat; [1]): 0
- Wild oats plant response rating (wild oat; [2]): 0
- Plant response rating, Wild oats (wild oat; [3]): 0
- Wild oats plant response rating (wild oat; [4]): 2
- Wild oats plant response rating (wild oat; [5]): 0
- Wild oats plant response rating (wild oat; [6]): 0
- Wild oats plant response rating (wild oat; [7]): 0
- Wild oats plant response rating (wild oat; [8]): 6
- Plant response rating, Morningglory (morningglory; [1]): 2
- Morningglory plant response rating (morningglory; [2]): 3
- Plant response rating, Morningglory (morningglory; [3]): 0
- Morningglory plant response rating (morningglory; [4]): 0
- Morningglory plant response rating (morningglory; [5]): 0
- Morningglory plant response rating (morningglory; [6]): 3
- Morningglory plant response rating (morningglory; [7]): 7
- Morningglory plant response rating (morningglory; [8]): 0
- Plant response rating, Blackgrass (blackgrass; [1]): 3
- Blackgrass plant response rating (blackgrass; [2]): 3
- Plant response rating, Blackgrass (blackgrass; [3]): 6
- Blackgrass plant response rating (blackgrass; [4]): 8
- Blackgrass plant response rating (blackgrass; [5]): 3
- Blackgrass plant response rating (blackgrass; [6]): 4
- Blackgrass plant response rating (blackgrass; [7]): 7
- Blackgrass plant response rating (blackgrass; [8]): 9
- Plant response rating, Redroot pigweed (pigweed; [1]): 0
- Redroot pigweed plant response rating (pigweed; [2]): 2
- Plant response rating, Redroot pigweed (pigweed; [3]): 9
- Redroot pigweed plant response rating (pigweed; [4]): 9
- Redroot pigweed plant response rating (pigweed; [5]): 3
- Redroot pigweed plant response rating (pigweed; [6]): 4
- Redroot pigweed plant response rating (pigweed; [7]): 8
- Redroot pigweed plant response rating (pigweed; [8]): 10
- Rice plant response rating (rice; [9]): 0
- Rice plant response rating (rice; [10]): 0
- Rice plant response rating (rice; [11]): 0
- Rice plant response rating (rice; [12]): 0
- Ducksalad plant response rating (duck salad; [9]): 0
- Ducksalad plant response rating (duck salad; [10]): 0
- Ducksalad plant response rating (duck salad; [11]): 0
- Ducksalad plant response rating (duck salad; [12]): 0
- Plant response rating, Giant foxtail (giant foxtail; [1]): 2
- Giant foxtail plant response rating (giant foxtail; [2]): 7
- Plant response rating, Giant foxtail (giant foxtail; [3]): 9
- Giant foxtail plant response rating (giant foxtail; [4]): 9
- Giant foxtail plant response rating (giant foxtail; [5]): 4
- Giant foxtail plant response rating (giant foxtail; [6]): 8
- Giant foxtail plant response rating (giant foxtail; [7]): 9
- Giant foxtail plant response rating (giant foxtail; [8]): 10
- S. Flatsedge plant response rating (smallflower flatsedge; [9]): 0
- S. Flatsedge plant response rating (smallflower flatsedge; [10]): 0
- S. Flatsedge plant response rating (smallflower flatsedge; [11]): 0
- S. Flatsedge plant response rating (smallflower flatsedge; [12]): 0
- Plant response rating, Nutsedge (purple nutsedge; [1]): 0
- Nutsedge plant response rating (purple nutsedge; [2]): 0
- Plant response rating, Nutsedge (purple nutsedge; [3]): 0
- Nutsedge plant response rating (purple nutsedge; [4]): 0
- Nutsedge plant response rating (purple nutsedge; [5]): 0
- Nutsedge plant response rating (purple nutsedge; [6]): 0
- Nutsedge plant response rating (purple nutsedge; [7]): 0
- Nutsedge plant response rating (purple nutsedge; [8]): 0
- Plant response rating, Rape (rape; [1]): 0
- Rape plant response rating (rape; [2]): 0
- Plant response rating, Rape (rape; [3]): 3
- Rape plant response rating (rape; [4]): 5
- Rape plant response rating (rape; [5]): 0
- Rape plant response rating (rape; [6]): 0
- Rape plant response rating (rape; [7]): 0
- Plant response rating, Sugarbeets (sugar beet; [1]): 0
- Sugarbeets plant response rating (sugar beet; [2]): 0
- Sugarbeets plant response rating (sugar beet; [4]): 3
- Sugarbeets plant response rating (sugar beet; [5]): 0
- Sugarbeets plant response rating (sugar beet; [6]): 2
- Sugarbeets plant response rating (sugar beet; [7]): 2
- Sugarbeets plant response rating (sugar beet; [8]): 5
- Barnyardgrass plant response rating (bamyardgrass; [9]): 0
- Barnyardgrass plant response rating (bamyardgrass; [10]): 0
- Barnyardgrass plant response rating (bamyardgrass; [11]): 0
- Barnyardgrass plant response rating (bamyardgrass; [12]): 0
- Plant response rating, Velvetleaf (velvetleaf; [1]): 0
- Velvetleaf plant response rating (velvetleaf; [2]): 0
- Plant response rating, Velvetleaf (velvetleaf; [3]): 0
- Velvetleaf plant response rating (velvetleaf; [4]): 0
- Velvetleaf plant response rating (velvetleaf; [5]): 0
- Velvetleaf plant response rating (velvetleaf; [6]): 2
- Velvetleaf plant response rating (velvetleaf; [7]): 2
- Velvetleaf plant response rating (velvetleaf; [8]): 3
- Plant response rating, Soybean (soybean; [1]): 2
- Soybean plant response rating (soybean; [2]): 3
- Plant response rating, Soybean (soybean; [3]): 0
- Soybean plant response rating (soybean; [4]): 0
- Soybean plant response rating (soybean; [5]): 0
- Soybean plant response rating (soybean; [6]): 4
- Soybean plant response rating (soybean; [7]): 6
- Soybean plant response rating (soybean; [8]): 0
